The values that follow come from patent US11292801B2, “Calpain modulators and therapeutic uses thereof” (Blade Therapeutics, Inc., priority 2016, dated 2022).

The target of one assay is T1, Human Calpain 1/NS1 (Homo sapiens, UniProt P07384).
T1 sequence (P07384 1-714): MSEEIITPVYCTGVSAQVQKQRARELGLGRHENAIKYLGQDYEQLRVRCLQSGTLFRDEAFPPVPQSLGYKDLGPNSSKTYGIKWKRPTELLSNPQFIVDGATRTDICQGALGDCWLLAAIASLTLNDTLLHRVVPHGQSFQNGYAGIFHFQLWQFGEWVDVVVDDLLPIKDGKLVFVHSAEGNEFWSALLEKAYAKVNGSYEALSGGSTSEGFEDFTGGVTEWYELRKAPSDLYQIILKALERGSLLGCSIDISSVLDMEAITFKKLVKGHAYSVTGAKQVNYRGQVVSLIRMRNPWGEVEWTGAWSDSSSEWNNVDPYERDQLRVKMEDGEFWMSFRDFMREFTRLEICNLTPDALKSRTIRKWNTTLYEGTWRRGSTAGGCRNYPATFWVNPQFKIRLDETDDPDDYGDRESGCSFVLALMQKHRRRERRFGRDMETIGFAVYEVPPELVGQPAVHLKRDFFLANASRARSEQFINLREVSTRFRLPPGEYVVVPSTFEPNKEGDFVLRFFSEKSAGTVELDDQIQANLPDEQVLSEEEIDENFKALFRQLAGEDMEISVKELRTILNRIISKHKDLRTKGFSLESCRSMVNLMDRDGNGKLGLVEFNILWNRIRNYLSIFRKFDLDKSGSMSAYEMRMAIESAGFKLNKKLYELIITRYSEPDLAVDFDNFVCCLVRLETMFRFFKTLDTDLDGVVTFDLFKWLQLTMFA
T1 sequence (P04632 1-268 partner): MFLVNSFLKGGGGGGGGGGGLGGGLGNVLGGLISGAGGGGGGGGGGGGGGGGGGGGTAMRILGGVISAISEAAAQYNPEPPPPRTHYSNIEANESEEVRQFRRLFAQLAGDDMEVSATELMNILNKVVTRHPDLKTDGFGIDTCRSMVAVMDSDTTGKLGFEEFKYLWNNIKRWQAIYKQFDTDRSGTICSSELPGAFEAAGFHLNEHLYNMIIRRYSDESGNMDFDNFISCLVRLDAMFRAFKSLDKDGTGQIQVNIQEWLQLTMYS
Put plainly: Biochemical inhibition of calpain 1, continuous fluorescence (FRET substrate) assay. The conditions noted are these: mean, read-out: Human Calpain 1/NS1 IC50 (nM)_MEAN. The gist of the method: (§1)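 IC50 values come from 4-parameter fits of progress-curve rates (1-5 min slopes) against log inhibitor concentration. Calpain and inhibitor premixed at ambient 25C in Tris pH ~7.5/NaCl/DTT buffer, then CaCl2 and FRET substrate added to activate; 5-FAM fluorescence (ex 490/em 520) followed 10 min.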

The next assay deals with T2, Human Calpain 2/NS1 (Homo sapiens, UniProt P17655).
T2 sequence (P17655 1-700): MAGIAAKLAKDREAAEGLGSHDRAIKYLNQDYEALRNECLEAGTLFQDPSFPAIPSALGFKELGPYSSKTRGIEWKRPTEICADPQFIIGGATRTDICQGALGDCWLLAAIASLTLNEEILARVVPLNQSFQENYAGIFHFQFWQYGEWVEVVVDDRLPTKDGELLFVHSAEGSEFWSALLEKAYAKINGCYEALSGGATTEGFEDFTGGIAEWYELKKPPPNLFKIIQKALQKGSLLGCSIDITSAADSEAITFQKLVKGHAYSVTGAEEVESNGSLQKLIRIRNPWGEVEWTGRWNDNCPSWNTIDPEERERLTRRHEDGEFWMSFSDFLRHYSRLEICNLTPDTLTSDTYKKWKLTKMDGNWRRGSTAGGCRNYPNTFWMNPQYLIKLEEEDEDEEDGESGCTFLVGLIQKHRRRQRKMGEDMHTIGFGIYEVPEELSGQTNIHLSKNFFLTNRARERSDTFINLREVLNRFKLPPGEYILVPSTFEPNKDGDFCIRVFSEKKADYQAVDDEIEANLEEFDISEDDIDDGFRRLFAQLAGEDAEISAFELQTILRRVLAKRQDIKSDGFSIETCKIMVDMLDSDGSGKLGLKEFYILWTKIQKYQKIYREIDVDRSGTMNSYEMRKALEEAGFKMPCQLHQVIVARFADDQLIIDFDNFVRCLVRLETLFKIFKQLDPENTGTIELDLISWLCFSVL
T2 sequence (P04632 1-268 partner): T1 sequence (P04632 1-268 partner)
As to the kind of experiment: Biochemical inhibition of calpain 2, continuous fluorescence (FRET substrate) assay. The conditions noted are these: mean, read-out: Human Calpain 2/NS1 IC50 (nM)_MEAN. The gist of the method:
as §1

The target in the next assay is T3, Human Calpain 9/NS1 (Homo sapiens, UniProt O14815).
T3 sequence (O14815 1-690): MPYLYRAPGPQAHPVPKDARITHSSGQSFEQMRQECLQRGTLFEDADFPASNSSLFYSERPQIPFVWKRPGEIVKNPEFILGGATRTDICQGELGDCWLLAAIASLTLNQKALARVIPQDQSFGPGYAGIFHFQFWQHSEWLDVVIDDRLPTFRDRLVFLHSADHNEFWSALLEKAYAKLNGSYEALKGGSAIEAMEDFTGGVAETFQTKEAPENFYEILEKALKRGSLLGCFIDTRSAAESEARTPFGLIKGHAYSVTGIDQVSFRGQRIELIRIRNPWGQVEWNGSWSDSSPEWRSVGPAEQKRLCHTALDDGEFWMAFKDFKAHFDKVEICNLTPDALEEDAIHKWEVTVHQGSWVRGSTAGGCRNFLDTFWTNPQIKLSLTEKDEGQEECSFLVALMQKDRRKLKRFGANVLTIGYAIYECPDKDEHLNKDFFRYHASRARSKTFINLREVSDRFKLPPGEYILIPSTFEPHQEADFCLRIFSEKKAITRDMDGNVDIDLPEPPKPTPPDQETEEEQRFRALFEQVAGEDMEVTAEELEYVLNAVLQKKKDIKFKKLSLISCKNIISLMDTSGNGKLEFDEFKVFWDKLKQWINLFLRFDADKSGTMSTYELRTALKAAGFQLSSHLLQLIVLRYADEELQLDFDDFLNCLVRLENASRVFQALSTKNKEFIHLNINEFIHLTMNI
T3 sequence (P04632 1-268 partner): T1 sequence (P04632 1-268 partner)
Put plainly: Biochemical inhibition of calpain 9, continuous fluorescence (FRET substrate) assay. The note with it: mean, read-out: Human Calpain 9/NS1 IC50 (nM)_MEAN. The gist of the method: as §1

For the molecule `O=C[C@@H]1Cc2ccc(cc2)OCC=CCOc2ccc3nn(cc3c2)-c2ncccc2C(=O)N1` [Compound 71, (1^3Z,1^4E,5S)-3-oxo-1^2H-8,13-dioxa-4-aza-1(2,5)-indazola-2(2,3)-pyridina-7(1,4)-benzenacyclotridecaphan-10-ene-5-carbaldehyde], the IC50 on Human Calpain 1/NS1, at Human Calpain 2/NS1 and at Human Calpain 9/NS1 was less than 3000 nM in each case.

For `O=C[C@@H]1CC=CCCOc2cccc(c2)-c2ccccc2C(=O)N1` [Compound 29, (S)-11-Oxo-3-oxa-10-aza-1(1,2),2(1,3)-dibenzenacycloundecaphan-6-ene-9-carbaldehyde], the IC50 at Human Calpain 1/NS1, on Human Calpain 2/NS1 and on Human Calpain 9/NS1 was less than 3000 nM each time.

Take `O=C[C@@H]1CCCCOCCn2ccc3cccc(c32)C(=O)N1` [Compound 8, (S)-11-Oxo-2,3,4,5,8,9,10,11-octahydrobenzo[b][1]oxa[5]azacyclotridecine-9-carbaldehyde]: the IC50 was 3000 to 10000 nM at Human Calpain 1/NS1, less than 3000 nM on Human Calpain 2/NS1 and less than 3000 nM on Human Calpain 9/NS1.

As to `CCNC(=O)C(=O)[C@@H]1C/C=C/CCCCCCCc2ccccc2C(=O)N1` [Compound 33, (S,E)-N-ethyl-2-oxo-2-(1-oxo-2,3,4,7,8,9,10,11,12,13-decahydro-1h-benzo[c][1]azacyclopentadecin-3-yl)acetamide], the IC50 at Human Calpain 1/NS1, on Human Calpain 2/NS1 and at Human Calpain 9/NS1 was more than 10000 nM throughout.

In the case of `CCNC(=O)C(=O)[C@@H]1CC=CCCCCCc2ccccc2C(=O)N1` [Compound 26, (S)—N-ethyl-2-oxo-2-(1-oxo-2,3,4,7,8,9,10,11-octahydro-1h-benzo[c][1]azacyclotridecin-3-yl)acetamide], the IC50 at Human Calpain 1/NS1 is more than 10000 nM; on Human Calpain 2/NS1 it was more than 10000 nM; on Human Calpain 9/NS1, 3000 to 10000 nM.

`O=C(NCc1ccccc1)C(=O)C1CCCCOCCOCc2ccccc2C(=O)N1` (stereo not drawn) [Compound 97, N-benzyl-2-oxo-2-(12-oxo-1,3,4,6,7,8,9,10,11,12-decahydrobenzo[f][1,4]dioxa[9]azacyclotetradecin-10-yl)acetamide]: the IC50 at Human Calpain 1/NS1 was more than 10000 nM; at Human Calpain 2/NS1, more than 10000 nM; on Human Calpain 9/NS1 it was less than 3000 nM.

On to `CCNC(=O)C(=O)[C@@H]1CCCCCCCCCCc2ccccc2C(=O)N1` [Compound 34, (S)—N-ethyl-2-oxo-2-(1-oxo-2,3,4,5,6,7,8,9,10,11,12,13-dodecahydro-1h-benzo[c][1]azacyclopentadecin-3-yl)acetamide], for which the IC50 on Human Calpain 1/NS1, on Human Calpain 2/NS1 and on Human Calpain 9/NS1 was more than 10000 nM each time.

Take `O=C[C@@H]1C/C=C/COCCOCc2ccccc2C(=O)N1` [Compound 2, (S,E)-12-Oxo-1,3,4,6,9,10,11,12-octahydrobenzo[f][1,4]dioxa[9]azacyclotetradecine-10-carbaldehyde]: the IC50 at Human Calpain 1/NS1 was more than 10000 nM; at Human Calpain 2/NS1 it was more than 10000 nM; on Human Calpain 9/NS1, 3000 to 10000 nM.

Turning to `O=C[C@@H]1CC=CCCCCOc2ccccc2C(=O)N1` (mixture of isomers) [Compound 5, (S)-11-Oxo-2,3,4,5,8,9,10,11-octahydrobenzo[b][1]oxa[5]azacyclotridecine-9-carbaldehyde], the IC50 on Human Calpain 1/NS1 is more than 10000 nM; at Human Calpain 2/NS1 it was 3000 to 10000 nM; on Human Calpain 9/NS1, less than 3000 nM.

With `O=C(NC1(c2cccnc2)CC1)C(=O)C1CCCCOCCOCc2ccccc2C(=O)N1` (stereo not drawn) [Compound 125, 2-Oxo-2-(12-oxo-1,3,4,6,7,8,9,10,11,12-decahydrobenzo[f][1,4]dioxa[9]aza-cyclotetradecin-10-yl)-N-(1-(pyridin-3-yl)cyclopropyl)acetamide], the IC50 at Human Calpain 1/NS1, on Human Calpain 2/NS1 and at Human Calpain 9/NS1 was more than 10000 nM each time.

In the case of `O=C[C@@H]1Cc2ccc(cc2)CCCCc2ccc3nn(cc3c2)-c2ncccc2C(=O)N1` [Compound 76, (1^3Z,1^4Z,5S)-3-oxo-1^2H-4-aza-1(2,5)-indazola-2(2,3)-pyridina-7(1,4)-benzenacycloundecaphane-5-carbaldehyde], the IC50 on Human Calpain 1/NS1, on Human Calpain 2/NS1 and on Human Calpain 9/NS1 was less than 3000 nM each time.

With `O=C[C@@H]1Cc2ccccc2CCCOCCCn2cncc2C(=O)N1` [Compound 22], the IC50 at Human Calpain 1/NS1 is 3000 to 10000 nM; at Human Calpain 2/NS1, 3000 to 10000 nM; at Human Calpain 9/NS1, more than 10000 nM.

For the molecule `COc1cccc(CN(C)C(=O)C(=O)C2CCCCOCCOCc3ccccc3C(=O)N2)c1` (stereo not drawn) [Compound 116, N-(3-methoxybenzyl)-N-methyl-2-oxo-2-(12-oxo-1,3,4,6,7,8,9,10,11,12-decahydrobenzo[f][1,4]dioxa[9]azacyclotetradecin-10-yl)acetamide], the IC50 at Human Calpain 1/NS1, at Human Calpain 2/NS1 and on Human Calpain 9/NS1 was more than 10000 nM each time.

In the case of `NC(=O)C(=O)[C@@H]1CCCCCOc2ccc(F)c(c2)-c2ccccc2C(=O)N1` [Compound 148, (S)-2-(2^6-fluoro-11-oxo-3-oxa-10-aza-1(1,2),2(1,3)-dibenzena-cycloundecaphane-9-yl)-2-oxoacetamide], the IC50 at Human Calpain 1/NS1, at Human Calpain 2/NS1 and at Human Calpain 9/NS1 was less than 3000 nM each time.

For `CN1CCN(CCCNC(=O)C(=O)C2CCCCOCCOCc3ccccc3C(=O)N2)CC1` (stereo not drawn) [Compound 105, N-(3-(4-methylpiperazin-1-yl)propyl)-2-oxo-2-(12-oxo-1,3,4,6,7,8,9,10,11,12-decahydrobenzo[f][1,4]dioxa[9]azacyclotetradecin-10-yl)acetamide], the values for the IC50 at Human Calpain 1/NS1, on Human Calpain 2/NS1 and on Human Calpain 9/NS1 were more than 10000 nM, more than 10000 nM and less than 3000 nM, respectively.

Turning to `O=C(NCc1cccc(OC(F)(F)F)c1)C(=O)C1CCCCOCCOCc2ccccc2C(=O)N1` (stereo not drawn) [Compound 120, 2-Oxo-2-(12-oxo-1,3,4,6,7,8,9,10,11,12-decahydrobenzo[f][1,4]dioxa[9]aza-cyclotetradecin-10-yl)-N-(3-(trifluoromethoxy)benzyl)acetamide], the IC50 is more than 10000 nM on Human Calpain 1/NS1, more than 10000 nM at Human Calpain 2/NS1 and less than 3000 nM on Human Calpain 9/NS1.
